Laboratory results as given in patent US20240279233A1, “MACROCYCLIC TAK1 INHIBITORS” (Aqilion AB, priority 2021, published 2024).

Biological target: human recombinant TAK1-TAB1 Kinase (TAK1 (1-303) and TAB1 (437-end)) (Homo sapiens (Human), UniProt O43318)
Test: TAK1 biochemical ADP-Glo kinase assay
Settings: 10 μM ATP, MBP substrate; read-out: TAK1 Mean IC50 (nM) @ 10 μM ATP
Description: The usefulness of the example compounds of the invention as TAK1 inhibitors was evaluated in a biochemical ADP-Glo kinase assay. Assay kits from Promega Corporation V4089 were used according to manufacturer's instructions and adapted as outlined here. ADP-Glo Kinase Assay kit contains ADP-Glo Reagent, Kinase Detection Reagent, kinase detection buffer, ATP, and ADP. The Kinase Enzyme Systems include human recombinant TAK1-TAB1 Kinase (TAK1 (1-303) and TAB1 (437-end)), Native Swine Myelin Basic Protein (MBP) substrate, 5×kinase reaction buffer, and DTT.
Test compounds were prepared in 1:5 serial dilutions at 8 concentrations in DMSO from 10 mM stock solutions. An additional 20-fold dilution in 1× kinase reaction buffer (see below) was performed, yielding a final dilution series in kinase buffer with 5% DMSO (final concentration in assay from 20 μM to 0.26 nM, 1% DMSO). As controls, Takinib was prepared as positive control (3 μM final in assay), and DMSO without inhibitor served as negative control, at a final assay concentration of DMSO of 1%.
One μl of compound solution in 5% DMSO was added to each well in a 384 well microtiter plate (OptiPlate #6007290). Two μl TAK1-TAB1 (7.5 ng/μl) in lxkinase reaction buffer ([…] Tris base pH 7.5, 20 mM MgCl2, 50 μM DTT, 0.1 mg/ml BSA) was added and pre-incubated 10 min before adding 2 μl of a mixture of MBP substrate and ATP (0.25 μg/μL MBP/25 μM ATP or 0.25 μg/μL MBP/2.5 mM ATP) in 1× kinase reaction buffer (as above). The plate was subsequently incubated at room temperature for 1 hour. Then 5 μl ADP-Glo™ reagent from ADP-Glo™ kit (as above) was added and incubated for 40 min to stop the reaction and consume remaining ATP. Ten μl kinase detection substrate (dissolved in kinase detection buffer, both from ADP-Glo™ kit as above) was then added to convert ADP to ATP and detect ATP with luciferase/luciferin. The plate was incubated for 30 minutes at room temperature in dark before reading luminescence on an Envision (PerkinElmer) reader.
IC50 values of compounds of the invention were determined by the non-linear regression analysis of dose response curves.

human recombinant TAK1-TAB1 Kinase (TAK1 (1-303) and TAB1 (437-end)), sequence (O43318 other isoform, or with tags, fused parts or gaps): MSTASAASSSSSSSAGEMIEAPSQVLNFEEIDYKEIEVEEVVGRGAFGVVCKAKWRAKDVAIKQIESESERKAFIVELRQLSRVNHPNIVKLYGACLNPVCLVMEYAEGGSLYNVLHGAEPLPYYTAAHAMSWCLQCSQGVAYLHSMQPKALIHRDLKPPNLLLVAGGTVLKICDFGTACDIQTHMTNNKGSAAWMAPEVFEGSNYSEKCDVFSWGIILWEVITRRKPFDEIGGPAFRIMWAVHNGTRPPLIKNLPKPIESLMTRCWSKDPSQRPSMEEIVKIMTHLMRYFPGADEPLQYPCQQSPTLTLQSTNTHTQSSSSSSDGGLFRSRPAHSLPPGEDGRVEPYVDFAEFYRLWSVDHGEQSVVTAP

| IC50 [nM] | Compound |
| --- | --- |
| 6 | COC1CN(C(=O)c2cccc3c2N2/C(=N/C(=O)c4cccc(c4)C(=O)NCCCCC2C)N3)C1 (single isomer, unassigned) [Example 81, (E)-1^7-(3-methoxyazetidine-1-carbonyl)-11-methyl-1^2,1^3-dihydro-1^1H-2,6-diaza-1(2,1)-benzo[d]imidazola-4(1,3)-benzenacycloundecaphane-3,5-dione] |
| 7 | COC1CN(C(=O)c2cccc3c2N2/C(=N/C(=O)c4cccc(c4)C(=O)NCCCCC2C)N3)C1 (single isomer, unassigned) [Example 82, (E)-1^7-(3-methoxyazetidine-1-carbonyl)-11-methyl-1^2,1^3-dihydro-1^1H-2,6-diaza-1(2,1)-benzo[d]imidazola-4(1,3)-benzenacycloundecaphane-3,5-dione] |
| 9 | CC1CCCCNC(=O)c2cccc(c2)C(=O)/N=C2\Nc3cccc(C(=O)N4CC[C@H](F)C4)c3N21 (single isomer, unassigned) [Example 88] |
| 5 | CC1CCCCNC(=O)c2cccc(c2)C(=O)Nc2nc3cccc(-c4nccn4C(F)F)c3n21 (single isomer, unassigned) [Example 91, (E)-1^7-(1-(difluoromethyl)-1H-imidazol-2-yl)-11-methyl-1^2,1^3-dihydro-1^1H-2,6-diaza-1(2,1)-benzo[d]imidazola-4(1,3)-benzenacycloundecaphane-3,5-dione] |
| 6 | CC1CCCCNC(=O)c2cccc(c2)C(=O)/N=C2\Nc3cccc(C(=O)N4CC[C@@H](F)C4)c3N21 (single isomer, unassigned) [Example 92] |

The remaining lines, values behind:

| Compound | IC50 [nM] |
| --- | --- |
| CCC1CCCCNC(=O)c2cccc(c2)C(=O)Nc2nc3cccc(C(=O)N(C)C)c3n21 (single isomer, unassigned) [Example 68, (E)-11-ethyl-N,N-dimethyl-3,5-dioxo-1^2,1^3-dihydro-1^1H-2,6-diaza-1(2,1)-benzo[d]imidazola-4(1,3)-benzenacycloundecaphane-1^7-carboxamide] | 4 |
| CC1CCCCNC(=O)c2cccc(c2)C(=O)/N=C2\Nc3cccc(C(=O)N(C)CCF)c3N21 (single isomer, unassigned) [Example 71, (E)-N-(2-fluoroethyl)-N,11-dimethyl-3,5-dioxo-1^2,1^3-dihydro-1^1H-2,6-diaza-1(2,1)-benzo[d]imidazola-4(1,3)-benzenacycloundecaphane-1^7-carboxamide] | 6 |
| CC1CCCCNC(=O)c2cccc(c2)C(=O)/N=C2\Nc3cccc(C(=O)N(C)CC(F)F)c3N21 (single isomer, unassigned) [Example 72, (E)-N-(2,2-difluoroethyl)-N,11-dimethyl-3,5-dioxo-1^2,1^3-dihydro-1^1H-2,6-diaza-1(2,1)-benzo[d]imidazola-4(1,3)-benzenacycloundecaphane-1^7-carboxamide] | 7 |
| CC1CCCCNC(=O)c2cccc(c2)C(=O)/N=C2\Nc3cccc(C(=O)N(C)CC(F)F)c3N21 (single isomer, unassigned) [Example 73, (E)-N-(2,2-difluoroethyl)-N,11-dimethyl-3,5-dioxo-1^2,1^3-dihydro-1^1H-2,6-diaza-1(2,1)-benzo[d]imidazola-4(1,3)-benzenacycloundecaphane-1^7-carboxamide] | 5 |
| CC1CCCCNC(=O)c2cccc(c2)C(=O)/N=C2\Nc3cccc(C(=O)N4CCOC[C@H]4C)c3N21 (single isomer, unassigned) [Example 75] | 11 |
| CC1CCCCNC(=O)c2cccc(c2)C(=O)/N=C2\Nc3cccc(C(=O)N4CCOC[C@@H]4C)c3N21 (single isomer, unassigned) [Example 77] | 5 |
| CC1CCCCNC(=O)c2cccc(c2)C(=O)/N=C2\Nc3cccc(C(=O)N4CC5(CCO5)C4)c3N21 (single isomer, unassigned) [Example 80, (E)-11-methyl-1^7-(1-oxa-6-azaspiro[3.3]heptane-6-carbonyl)-1^2,1^3-dihydro-1^1H-2,6-diaza-1(2,1)-benzo[d]imidazola-4(1,3)-benzenacycloundecaphane-3,5-dione] | 5 |

Same assay, conditions: 1 mM ATP, MBP substrate; read-out: TAK1 Mean IC50 (nM) @ 1 mM ATP

| IC50 [nM] | Compound |
| --- | --- |
| 27 | CC1CCCCNC(=O)c2cccc(c2)C(=O)/N=C2\Nc3cccc(C(=O)N(C)CCF)c3N21 (single isomer, unassigned) [Example 71, (E)-N-(2-fluoroethyl)-N,11-dimethyl-3,5-dioxo-1^2,1^3-dihydro-1^1H-2,6-diaza-1(2,1)-benzo[d]imidazola-4(1,3)-benzenacycloundecaphane-1^7-carboxamide] |
| 19 | CC1CCCCNC(=O)c2cccc(c2)C(=O)Nc2nc3cccc(-c4nccn4C(F)F)c3n21 (single isomer, unassigned) [Example 91, (E)-1^7-(1-(difluoromethyl)-1H-imidazol-2-yl)-11-methyl-1^2,1^3-dihydro-1^1H-2,6-diaza-1(2,1)-benzo[d]imidazola-4(1,3)-benzenacycloundecaphane-3,5-dione] |
